Test results as given in patent US11696593B2, “Astaxanthin nutritional compositions and uses” (Bioscience Formulators, LLC, priority 2018, dated 2023).

Tested on: subject having diabetes with A1C as high as 13
Experiment: blood A1C level of a diabetic subject, astaxanthin alone and then the daily dose (Example 4)
Format: in vivo, human
Conditions: one subject, 12-24 mg of astaxanthin a day
Description: They begin taking softgel capsules of the daily dose of Example 1 and after 6 weeks their blood A1C level is 5.6 with no changes in diet or habits.

With `CC1=C(/C=C/C(C)=C/C=C/C(C)=C/C=C/C=C(C)/C=C/C=C(C)/C=C/C2=C(C)C(=O)C(O)CC2(C)C)C(C)(C)CC(O)C1=O` (stereo not drawn) [astaxanthin, 3,3′-dihydroxy-β-carotene-4,4′-dione] as the compound, how does the blood A1C levels read?
The blood A1C levels was no more than 13%.
